Results from patent US7745575B1 (Cellpep Pharma Inc., priority 2004, dated 2010).
Where “and” joins values, the source holds several entries; their conditions need not be identical. Identical values can stand only once. Entries after “also recorded” stand apart in the source; their conditions may differ. Bridge positions count the residues as written; N and C are the ends. Ends that are not written are not given here. Peptide text beside a SMILES is read from it.

T1: hKv3.2 (human (only by the printed prefix h), UniProt Q96PR1)
T1 sequence: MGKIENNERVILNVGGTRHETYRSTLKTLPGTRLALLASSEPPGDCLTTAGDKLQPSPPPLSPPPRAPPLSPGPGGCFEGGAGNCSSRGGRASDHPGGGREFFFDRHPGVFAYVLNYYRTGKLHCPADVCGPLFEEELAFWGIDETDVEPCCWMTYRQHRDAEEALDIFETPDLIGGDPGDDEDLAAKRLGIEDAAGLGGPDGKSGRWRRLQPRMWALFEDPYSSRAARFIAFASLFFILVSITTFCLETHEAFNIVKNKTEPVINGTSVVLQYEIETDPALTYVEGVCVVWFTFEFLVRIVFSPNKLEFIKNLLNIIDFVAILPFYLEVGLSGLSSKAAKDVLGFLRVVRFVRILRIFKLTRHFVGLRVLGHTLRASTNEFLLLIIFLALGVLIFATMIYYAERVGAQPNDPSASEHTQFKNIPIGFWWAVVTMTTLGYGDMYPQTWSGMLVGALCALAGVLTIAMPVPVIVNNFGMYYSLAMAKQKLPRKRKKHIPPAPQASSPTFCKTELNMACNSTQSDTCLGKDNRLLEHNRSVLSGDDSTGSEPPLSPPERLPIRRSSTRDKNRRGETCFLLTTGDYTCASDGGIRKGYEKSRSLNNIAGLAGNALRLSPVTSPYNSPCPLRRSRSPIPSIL


What was measured:
[1] = toxicity in vivo, LD50 after intracerebroventricular injection; details: mouse, icv or intrathecal, 20 g C57/BL6 mice
Experimental: Groups of six to eight mice per dose were injected with 5 μl peptide solution containing 0.1% (w/v) bovine serum albumin and 0.9% (w/v) NaCl. The LD50 values are set out in Table 5.

mKv1.3 = mKv1.3 (Mus musculus, UniProt P16390); assay: patch-clamp whole-cell recording, K+ current block; assay type: cell-based
mKv1.3, sequence (P16390 whole entry, the tested form may be a part): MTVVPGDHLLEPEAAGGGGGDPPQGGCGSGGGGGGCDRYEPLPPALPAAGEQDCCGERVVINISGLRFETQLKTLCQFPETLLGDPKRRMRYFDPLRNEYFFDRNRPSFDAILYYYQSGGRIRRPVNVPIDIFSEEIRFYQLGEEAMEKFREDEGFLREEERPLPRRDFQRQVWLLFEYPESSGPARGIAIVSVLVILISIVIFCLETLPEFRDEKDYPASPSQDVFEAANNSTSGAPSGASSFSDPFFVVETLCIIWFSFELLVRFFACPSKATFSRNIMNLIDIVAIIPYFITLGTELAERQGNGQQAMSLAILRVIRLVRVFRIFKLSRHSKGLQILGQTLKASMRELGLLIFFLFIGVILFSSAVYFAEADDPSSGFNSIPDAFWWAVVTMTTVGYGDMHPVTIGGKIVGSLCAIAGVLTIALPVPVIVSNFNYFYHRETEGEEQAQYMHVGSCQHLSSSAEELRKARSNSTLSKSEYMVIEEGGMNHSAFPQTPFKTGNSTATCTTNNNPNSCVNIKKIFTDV
Experimental: Electrophysiological experiments were carried out at 22-24° C. using the patch-clamp whole-cell recording mode. Cells were bathed with mammalian Ringer's solution (in mM): 160 NaCl, 4.5 KCl, 2 CaCl2, 1 MgCl2, and 10 HEPES (pH 7.4 with NaOH), with an osmolarity of 290-320 mOsm. […] A syringe-driven perfusion device was used to exchange the external recording bath solution. Two internal pipette solutions were used, one for measuring voltage-gated K^+ currents that contained (in mM): 155 KF, 2 MgCl2, 10 HEPES, and 10 EGTA (pH 7.2 with KOH), with an osmolarity of 290-320 mOsm and another for measuring Ca^2+-activated K^+ currents that contained (in mM): 135 K-aspartate, 8.7 CaCl2, 2 MgCl2, 10 EGTA, 10 HEPES (pH 7.2 with KOH), with an osmolarity of 290-320 mOsm. A free [Ca^2+]i of 1 μM was calculated. All currents through voltage-gated K^+ channels were elicited by 200 ms depolarising voltage steps from −80 to +40 mV. Potassium currents through KCa1.1, KCa2.1 and KCa3.1 were elicited by 1 μM internal [Ca^2+]i and 400 ms voltage ramps from −120 to 0 mV (for KCa3.1 channel and KCa1.1 channel) and from −120 to +40 mV (for KCa2.1 channel). Electrodes were pulled from glass capillaries (Science Products, Germany), and fire-polished to resistances of 2.5-5 MΩ. Membrane currents were measured with an EPC-9 or EPC-10 patch-clamp amplifier (HEKA Elektronik, Lambrecht, Germany) interfaced to a Macintosh computer running acquisition and analysis software (Pulse and PulseFit). When voltage-gated K^+ currents were measured, the capacitive and leak currents were subtracted using a P/10 procedure. Series resistance compensation (>80%) was used for currents above 2 nA. The holding potential was −80 mV in all experiments.

[2] = test system: Lewis rats immunized with spinal cord homogenate; assay: treatment of chronic relapsing EAE, osmotic pump IP; assay type: in vivo; details: MTx 50 nM
Experimental: Each rat received 200 μl of emulsion sc, divided in the rear footpads, on day 0. Eight days later, as their body weight decreased, a precursor sign for clinical EAE, an osmotic pump was implanted IP. The pump delivered drugs at 1 μl/h for 8 days. They were filled with the peptide blockers, dissolved in Na Cl 0.15 M containing 2% Lewis serum, as vehicle.
Clinical evaluation. The severity of the disease was scored on a scale of 0 to 6, with 0.5 points for intermediate clinical findings (0: no clinical signs; 1.0: limp tail; 2.0: mild paraparesis and ataxia; 3.0: moderate paraparesis; 4.0: complete hind limb paralysis; 5.0: paralysis+incontinence; 5.5: tetraplegia; 6.0: moribund or death). Rats were weighed every day. Rats showing no clinical signs of EAE and no weight loss were excluded from the studies. The beneficial effects of K^+ blockers on EAE were evaluated by a reduction in clinical severity and in duration of the disease and in number of relapses compared with those of rats treated with the vehicle only, 0.15 M NaCl.
Data analysis. Statistical analysis was conducted using the Mann-Whitney U test. Mean differences between groups were considered significant at values of P<0.05.

hKv3.2 = target: T1, hKv3.2; assay: cell-based or functional assay
hKv1.2 = hKv1.2 (human (only by the printed prefix h), UniProt P16389); assay: cell-based or functional assay

Row | Molecule | LD50 [1] [µg/kg] | ID50 (hKv3.2) [nM] | further results
1 | CC[C@H](C)[C@@H]1NC(=O)[C@H](CCCCN)NC(=O)[C@@H](NC(=O)[C@H](CCCCN)NC(=O)[C@@H](NC(=O)[C@H](CC(N)=O)NC(=O)[C@@H](NC(=O)[C@@H](NC(=O)[C@@H](NC(=O)CN)C(C)C)[C@@H](C)CC)[C@@H](C)CC)C(C)C)CSSC[C@@H]2NC(=O)[C@H](CCCCN)NC(=O)CNC(=O)[C@H](Cc3ccccc3)NC(=O)[C@H](CCCNC(=N)N)NC(=O)[C@H](CCSC)NC(=O)CNC(=O)[C@H](C)NC(=O)[C@H](CCCCN)NC(=O)[C@H](CCCCN)NC(=O)[C@@H]3CSSC[C@@H](C(=O)N[C@H](C(=O)N4CCC[C@H]4C(=O)N[C@@H](CCCCN)C(N)=O)[C@@H](C)O)NC(=O)[C@H](Cc4c[nH]cn4)NC(=O)[C@H](CSSC[C@H](NC(=O)[C@H](CCC(N)=O)NC(=O)[C@H](CCCNC(=N)N)NC(=O)[C@H](CO)NC1=O)C(=O)N[C@@H](CC(C)C)C(=O)N[C@@H](CCC(=O)O)C(=O)N1CCC[C@H]1C(=O)N3)NC(=O)[C@H](CCCCN)NC(=O)CNC(=O)[C@H](CC(N)=O)NC(=O)[C@H](CCSC)NC2=O [OsK1-NH2] | 3.5 |  | 
2 | CC[C@H](C)[C@@H]1NC(=O)[C@H](CCCCN)NC(=O)[C@@H](NC(=O)[C@H](CCCCN)NC(=O)[C@@H](NC(=O)[C@H](CC(N)=O)NC(=O)[C@@H](NC(=O)[C@@H](NC(=O)[C@@H](NC(=O)CN)C(C)C)[C@@H](C)CC)[C@@H](C)CC)C(C)C)CSSC[C@@H]2NC(=O)[C@H](CCCCN)NC(=O)CNC(=O)[C@H](Cc3ccccc3)NC(=O)[C@H](CCCNC(=N)N)NC(=O)[C@H](CCSC)NC(=O)CNC(=O)[C@H](C)NC(=O)[C@H](CCCCN)NC(=O)[C@H](CCCCN)NC(=O)[C@@H]3CSSC[C@@H](C(=O)N[C@H](C(=O)N4CCC[C@H]4C(=O)N[C@@H](CCCCN)C(=O)O)[C@@H](C)O)NC(=O)[C@H](C)NC(=O)[C@H](CSSC[C@H](NC(=O)[C@H](CCC(N)=O)NC(=O)[C@H](CCCNC(=N)N)NC(=O)[C@H](CO)NC1=O)C(=O)N[C@@H](CC(C)C)C(=O)N[C@@H](CCC(=O)O)C(=O)N1CCC[C@H]1C(=O)N3)NC(=O)[C@H](CCCCN)NC(=O)CNC(=O)[C@H](CC(N)=O)NC(=O)[C@H](CCSC)NC2=O [[A^34]-OsK1] (H-GVIINVKCKISRQCLEPCKKAGMRFGKCMNGKCACTPK-OH; disulfide 8-28, 14-33, 18-35) | 10 |  | 
3 | CC[C@H](C)[C@@H]1NC(=O)[C@H](CCCCN)NC(=O)[C@@H](NC(=O)[C@H](CCCCN)NC(=O)[C@@H](NC(=O)[C@H](CC(N)=O)NC(=O)[C@@H](NC(=O)[C@@H](NC(=O)[C@@H](NC(=O)CN)C(C)C)[C@@H](C)CC)[C@@H](C)CC)C(C)C)CSSC[C@@H]2NC(=O)[C@H](CCCCN)NC(=O)CNC(=O)[C@H](Cc3ccccc3)NC(=O)[C@H](CCCNC(=N)N)NC(=O)[C@H](CCSC)NC(=O)CNC(=O)[C@H](C)NC(=O)[C@H](CC(=O)O)NC(=O)[C@H](CCCCN)NC(=O)[C@@H]3CSSC[C@@H](C(=O)N[C@H](C(=O)N4CCC[C@H]4C(=O)N[C@@H](CCCCN)C(=O)O)[C@@H](C)O)NC(=O)[C@H](Cc4c[nH]cn4)NC(=O)[C@H](CSSC[C@H](NC(=O)[C@H](CCC(N)=O)NC(=O)[C@H](CCCNC(=N)N)NC(=O)[C@H](CO)NC1=O)C(=O)N[C@@H](CC(C)C)C(=O)N[C@@H](CCC(=O)O)C(=O)N1CCC[C@H]1C(=O)N3)NC(=O)[C@H](CCCCN)NC(=O)CNC(=O)[C@H](CC(N)=O)NC(=O)[C@H](CCSC)NC2=O [[D^20]-OsK1] (H-GVIINVKCKISRQCLEPCKDAGMRFGKCMNGKCHCTPK-OH; disulfide 8-28, 14-33, 18-35) | 4.5 |  | 
4 | CC[C@H](C)[C@@H]1NC(=O)[C@H](CCCCN)NC(=O)[C@@H](NC(=O)[C@H](CCCCN)NC(=O)[C@@H](NC(=O)[C@H](CC(N)=O)NC(=O)[C@@H](NC(=O)[C@@H](NC(=O)[C@@H](NC(=O)CN)C(C)C)[C@@H](C)CC)[C@@H](C)CC)C(C)C)CSSC[C@@H]2NC(=O)[C@H](CCCCN)NC(=O)CNC(=O)[C@H](Cc3ccccc3)NC(=O)[C@H](CCCNC(=N)N)NC(=O)[C@H](CCSC)NC(=O)CNC(=O)[C@H](C)NC(=O)[C@H](CCCCN)NC(=O)[C@H](CCCCN)NC(=O)[C@@H]3CSSC[C@@H](C(=O)N[C@H](C(=O)N4CCC[C@H]4C(=O)N[C@@H](CCCCN)C(=O)O)[C@@H](C)O)NC(=O)[C@H](Cc4c[nH]cn4)NC(=O)[C@H](CSSC[C@H](NC(=O)[C@H](CCC(N)=O)NC(=O)[C@H](CCCNC(=N)N)NC(=O)[C@H](CO)NC1=O)C(=O)N[C@@H](CC(C)C)C(=O)N[C@@H](CCCCN)C(=O)N1CCC[C@H]1C(=O)N3)NC(=O)[C@H](CCCCN)NC(=O)CNC(=O)[C@H](CC(N)=O)NC(=O)[C@H](CCSC)NC2=O [[K^16]-OsK1] (H-GVIINVKCKISRQCLKPCKKAGMRFGKCMNGKCHCTPK-OH; disulfide 8-28, 14-33, 18-35) | 3 |  | IC50 (mKv1.3): 0.067 ± 0.006 nM
5 | CC[C@H](C)[C@@H]1NC(=O)[C@H](CCCCN)NC(=O)[C@@H](NC(=O)[C@H](CCCCN)NC(=O)[C@@H](NC(=O)[C@H](CC(N)=O)NC(=O)[C@@H](NC(=O)[C@@H](NC(=O)[C@@H](N)C(C)C)[C@@H](C)CC)[C@@H](C)CC)C(C)C)CSSC[C@@H]2NC(=O)[C@H](CCCCN)NC(=O)CNC(=O)[C@H](Cc3ccccc3)NC(=O)[C@H](CCCNC(=N)N)NC(=O)[C@H](CCSC)NC(=O)CNC(=O)[C@H](C)NC(=O)[C@H](CCCCN)NC(=O)[C@H](CCCCN)NC(=O)[C@@H]3CSSC[C@@H](C(=O)N[C@H](C(=O)N4CCC[C@H]4C(=O)N[C@@H](CCCCN)C(N)=O)[C@@H](C)O)NC(=O)[C@H](Cc4c[nH]cn4)NC(=O)[C@H](CSSC[C@H](NC(=O)[C@H](CCC(N)=O)NC(=O)[C@H](CCCNC(=N)N)NC(=O)[C@H](CO)NC1=O)C(=O)N[C@@H](CC(C)C)C(=O)N[C@@H](CCC(=O)O)C(=O)N1CCC[C@H]1C(=O)N3)NC(=O)[C@H](CCCCN)NC(=O)CNC(=O)[C@H](CC(N)=O)NC(=O)[C@H](CCSC)NC2=O [[Δ^1]-OsK1-NH2] (H-VIINVKCKISRQCLEPCKKAGMRFGKCMNGKCHCTPK-NH2; disulfide 7-27, 13-32, 17-34) | 7 |  | 
6 | VSCTGSKDCYAPCRKQTGCPNA-KCINK-SCKCYGC [MTx] |  |  | Incid [2]: 100%; Max Clin Sc, Mean ± SD ([2]; group mean, scale 0 to 6): 2.2 ± 1.5; Duration (days), first episode of EAE ([2]; individual rats): chronic (3×) and 11 days; Onset (day), first episode of EAE ([2]; individual rats): d11 day; also recorded: d8 day; also recorded: d7 day; Max Clin Sc ([2]; individual rats, scale 0 to 6): 4 and 1 (2×) and 3
7 | Ac-GVIINVKCKISRQCLEPCKKAGMRFGKCMNGKCHCTPK-NH2 (ends and bridges not checked) [Ac-OsK1-NH2] |  | > 1000 | ID50 (hKv1.2): ~1300 nM
8 | GVIINVKCKISRQCLEPCKKAGMRFGKCMNGKCHCTPK [OsK1] |  | > 1000 | 
9 | GVIINVKCKISRQCLEPCKKAGMRFGKCMNGKCHCTPK-NH2 (ends and bridges not checked) [OsK1-NH2] |  | > 1000 | ID50 (hKv1.2): 26 nM
